Literature values, collected in patent US10285971B2, “Formulations of water-soluble derivatives of vitamin E and soft gel compositions, concentrates and powders containing same” (VIRUN, INC., priority 2014, dated 2019).

Substance	HLB value
sucrose monopalmitate	> 10
sucrose distearate	3
sucrose dipalmitate	7.4
